Consider 17 compounds from patent publication US8435960B2, “Devices for improved wound management” (Lakewood-Amedex, Inc., priority 1998, dated 2013).

The subject of data set [1] is Strep. mutans. As to the kind of experiment: Stationary growth assay, Strep. mutans. The data set is classed as cell-based. The conditions noted are these: 16 A260 units; for CFU/ml: Strep. mutans 10^7 CFU/ml start; for Inhibition (%): Strep. mutans, approx. 24 hours.
The test system of data set [2] is Pseudomonas aeruginosa (Strain Utah 4). Description: Burn wound infection model, subcutaneous (systemic) infection. In kind it is in vivo, BALB/c female mice.
Data set [3] has the same test system. As to the kind of experiment: Burn wound infection model, topical infection and topical treatment. The data set is classed as in vivo, BALB/c female mice. To be noted: for % Survival / No. Survivors/Total: topical infection, topical treatment.
Data set [4] concerns P. aeruginosa ACC # 10145. As to the kind of experiment: Limited nutrient growth study, P. aeruginosa. The conditions noted are these: approx. 24 hours; for Inhibition (%): oligonucleotide pH 1.5, 32 A260 units. In kind it is cell-based.
Data set [5] deals with S. aureus ACC # 13301. As to the kind of experiment: Limited nutrient growth study, S. aureus. The conditions noted are these: approx. 24 hours; for Inhibition (%): oligonucleotide pH 1.5, 32 A260 units. In kind it is cell-based.
The test system of data set [6] is S. aureus. Description: Stationary growth assay, S. aureus. In kind it is cell-based. To be noted: S. aureus 10^7 CFU/ml start, 32 A260 units.
In data set [7] the test system is Pseudomonas aeruginosa. As to the kind of experiment: Topical treatment of outer ear infections in chinchillas. The data set is classed as in vivo.
Data set [8] deals with Pseudomonas aeruginosa. As to the kind of experiment: Systemic Pseudomonas burn model of infection (Example 9). In kind it is in vivo, mice.
In data set [9] the test system is Pseudomonas aeruginosa. Description: Topical Pseudomonas burn model of infection in immuno-compromised mice (Example 9). In kind it is in vivo. To be noted: topical treatment at 4 hrs. and 8 hrs. post infection, pH 1.5.
For data set [10], the system named is Strep. pyogenes. As to the kind of experiment: Treatment of Strep. pyogenes skin infection on a dog. To be noted: cut on abdomen, Neosporin for 3 days, nucleic acid pH 1.5, two treatments separated by 12 hours. In kind it is in vivo.
Data set [11] relates to Staphylococcal furuncle. Description: Treatment of Staphylococcal furuncle in a human subject. In kind it is in vivo.
[12] abbreviates: topical treatment 1800 A/ml, individual mice # 1-3, NG = no growth.
Where [13] appears, read: mice, burn wound infection with 5 LD50 P. aeruginosa, summary of all studies.
The mark [14] stands for this setting: pH of nucleic acid 3, 32 A260 units.
Where [15] appears, read: pH of nucleic acid 4, 32 A260 units.
Where [16] appears, read: pH of nucleic acid 5, 32 A260 units.
Where [17] appears, read: pH of nucleic acid 7, 32 A260 units.
Where [18] appears, read: after 16 hours from the initial treatment.

Strand notation (5' to 3'): a small letter for the sugar, then the base; units joined by * are phosphorothioate-linked, units joined directly phosphodiester-linked; [ ] holds rarer units or linkages, { } end groups; capitals alone tell only the bases. [invdT] = inverted (3'-3') thymidine; {BuOH} = butanol end-blocking group; m = 2'-O-methyl

Take “114.6: 2′-O-methyl substituted ribonucleotides phosphodiester linked with 5′ and 3′ inverted T end-blocking, sequence CGCCAT”: in data set [1] (pH 3), the CFU/ml stood at 0 CFU/ml and the “Inhibition (%)” value is given as 100%. For the same compound, in data set [1] (pH 7), the CFU/ml was 10^7 CFU/ml and the “Inhibition (%)” value was determined as 0%.
For the compound “114.21: 2′-O-methyl substituted ribonucleotides phosphodiester linked with 5′ and 3′ inverted T end-blocking, sequence GGAACGCGCCATTGGTATATC (all 2'-O-methyl, all phosphodiester, 5' [invdT], 3' [invdT], T or U not given here)”, the CFU/ml in data set [1] (pH 3) is 0 CFU/ml; in data set [1] (pH 7), 10^7 CFU/ml. Besides, the “Inhibition (%)” value in data set [1] (pH 3) worked out at 100%; in data set [1] (pH 7), 0%.
As for `CO[C@@H]1[C@H](O)[C@@H](COP(=O)(O)O)O[C@H]1n1ccc(=O)[nH]c1=O` [compound 6, 2′-O-methyl Uridine monophosphate], in data set [2] (mouse, in vivo), the “# Survivors/Total Animals Tested” value was 0/5, the “% Survival” value amounted to 0% and the therapeutic activity entry is reported as “did not appear to show any therapeutic activity”.
Take “HO—CH2CH2CH2CH2-ACg•CgC•CAU•Ugg-CH2CH2CH2CH2—OH [B2]”: in [3] (concentration 335 A/ml), the “% Survival” value was found to be 40% and the “No. Survivors/Total” value is given as 2/5. In [3] (concentration 1800 A/ml), the “% Survival” value is listed as 90% and the “No. Survivors/Total” value is on record as 9/10. For the same compound, in data set [3] (setting [12]), the “Microbiological quantitation of tissues, Blood” value is listed as “devoid of any detectable CFUs”; the “Microbiological quantitation of tissues, Livers” value is reported as “two out of three”; the “Microbiological quantitation of tissues, Spleens” value is on record as “devoid of any detectable CFUs”. For the same compound, in data set [2] (mouse, in vivo), the “# Survivors/Total Animals Tested” value is listed as 28/30, the “No. Survivors/Total Animals” value is given as 5/5 and the survival rate is listed as 100%. Further, the “survival rate (efficacy)” value in [2] (mouse, in vivo, iv) was 80%. Besides, in data set [2] (mouse, in vivo, sc), the “survival rate (efficacy)” value came to 40%.
Turning to “HO—CH2CH2CH2CH2-ACg•CgC•CAU•Ugg-CH2CH2CH2CH2—OH [B7]”, in data set [3] (concentration 1800 A/ml), the “% Survival” value is given as 40% and the “No. Survivors/Total” value is given as 2/5. Also, in data set [2] (mouse, in vivo), the “# Survivors/Total Animals Tested” value is on record as 2/5 and the “% Survival” value was 40%.
As for “HO—CH2CH2CH2CH2-AUG-CH2CH2CH2CH2—OH [compound 2]”, in [2] (mouse, in vivo), the “# Survivors/Total Animals Tested” value is 3/5 and the “% Survival” value is reported as 60%.
The like results for “HO—CH2CH2CH2CH2-CgC•CAU—CH2CH2CH2CH2—OH [compound 7]” were, in that order, 2/5 and 40%.
For the compound “HO—CH2CH2CH2CH2-G-CH2CH2CH2CH2—OH [compound 3]”, in data set [2] (setting [13]), the “# Survivors/Total Animals Tested” value was 3/5 and the “% Survival” value is on record as 60%.
Regarding “HO—CH2CH2CH2CH2-GGG-CH2CH2CH2CH2—OH [compound 5]”, in data set [2] (mouse, in vivo), the “# Survivors/Total Animals Tested” value was 3/5 and the “% Survival” value is listed as 60%.
“HO—CH2CH2CH2CH2—UUU—CH2CH2CH2CH2—OH [compound 4]”: in data set [2] (mouse, in vivo), the “# Survivors/Total Animals Tested” value is given as 2/5 and the “% Survival” value stood at 40%.
Consider “Homopolymer, 12 A: AAAAAAAAAAAA, 2′-O-methyl substituted ribonucleotides phosphodiester linked, 3′ and 5′ butanol end-blocking ({BuOH}-mAmAmAmAmAmAmAmAmAmAmAmA-{BuOH})”, for which the “Inhibition (%)” value in [4] and in data set [5] was 100% throughout.
For the compound “Homopolymer, 12 C: CCCCCCCCCCCC, 2′-O-methyl substituted ribonucleotides phosphodiester linked, 3′ and 5′ butanol end-blocking ({BuOH}-mCmCmCmCmCmCmCmCmCmCmCmC-{BuOH})”, the “Inhibition (%)” value in data set [4] and in data set [5] was 100% in each case.
Take “Homopolymer, 12 G: GGGGGGGGGGGG, 2′-O-methyl substituted ribonucleotides phosphodiester linked, 3′ and 5′ butanol end-blocking ({BuOH}-mGmGmGmGmGmGmGmGmGmGmGmG-{BuOH})”: the “Inhibition (%)” value in data set [4] and in [5] was 100% throughout.
“Homopolymer, 12 U: UUUUUUUUUUUU, 2′-O-methyl substituted ribonucleotides phosphodiester linked, 3′ and 5′ butanol end-blocking (2'-O-methyl; butanol end caps)”: the “Inhibition (%)” value in data set [4] and in data set [5] was 100% throughout.
Take “SEQ ID NO: 1: 2′-O-methyl ribonucleotides, phosphodiester linkage, 5′ and 3′ inverted T end-blocked, sequence CGCCATTGG (all 2'-O-methyl, all phosphodiester, 5' [invdT], 3' [invdT], T or U not given here)”: the CFU/ml is given as 0 CFU/ml in [6] (pH of nucleic acid 2, approx. 24 hours); 10^3 CFU/ml in [6] (pH of nucleic acid 3); 10^6 CFU/ml in data set [6] (pH of nucleic acid 4); 10^7 CFU/ml in data set [6] (pH of nucleic acid 5); 10^7 CFU/ml in data set [6] (pH of nucleic acid 7). Also, the “Inhibition of Growth (%)” value in [4] (pH of nucleic acid 2, 32 A260 units) is 100%; in [4] (setting [14]), 100%; in [4] (setting [15]) it was 100%; in data set [4] (setting [16]), 0%; in data set [4] (setting [17]), 0%; in data set [5] (pH of nucleic acid 2, 32 A260 units, A625) it was 100%. The “Inhibition of Growth (%)” value in data set [5] (setting [14]) was found to be 100%; in data set [5] (setting [15]), 100%; in data set [5] (setting [16]), 16%; in [5] (setting [17]) it was 0%.
Consider “SEQ ID NO: 9: ACGCGCCATTAT, 2′-O-methyl substituted ribonucleotides, phosphodiester linked, end blocked with an inverted T at both the 5′ and 3′ ends (all 2'-O-methyl, all phosphodiester, 5' [invdT], 3' [invdT], T or U not given here)”, for which the “effectiveness in vehicle mixture (water/ethanol/propylene glycol) compared with water” value in [7] (otoscopic examination, 2 mMolar in vehicle mixture vs 2.8 mMolar in water) is “slightly more effective”. Besides, the “outcome of ear infections by otoscopic examination” value in data set [7] (two daily topical applications, pH 1.5, by day 7 post infection (4 days after treatment began)) is reported as “completely cured”. The “survival of treated mice” value in [8] (10^6 or 10^7 CFU S.C. after burn, treatment I.V. (40% of dose) and S.C., 40 treated mice, pH 1.5) was determined as 100%. Further, the “Pseudomonas bacteria in the spleen, liver, or blood” value in data set [8] (treated surviving mice sacrificed and checked for sepsis) is given as “not detected”. In addition, the “survival of treated animals” value in data set [9] (cyclophosphamide-treated mice, 10^9 CFU topically on burn) turned out to be 100%. Further, the “systemic Pseudomonas infection in treated animals” value in data set [9] is “free of systemic Pseudomonas infections”. The “outcome of Strep. pyogenes skin infection” value in data set [10] was “completely cleared up the infection, swelling, inflammation, and sensitivity to touch”. In addition, the furuncle size entry in [11] (1.5 cm furuncle, after 8 hours of treatment, 100 μl, 18.9 mMolar in water, pH 1.5) is “approximately 0.5 cm”. Also, in data set [11] (setting [18]), the “size of remaining pinkish area of the furuncle” value is given as less than 0.5 cm and the “swelling, pain, inflammation of furuncle” value is given as “virtually no swelling, pain, or inflammation”.
For the compound “dihydroxydibutyldiphophate 2′-O-methyl uridine [BUB]”, in data set [2] (mouse, in vivo), the “# Survivors/Total Animals Tested” value was 7/8 and the “% Survival” value is given as 87.5%.
